Laboratory results from article PMC11864979, “First-in-class ultralong-target-residence-time p38α inhibitors as a mitosis-targeted therapy for colorectal cancer” (Nature Cancer, 2025).
Read-outs that look alike come from different tables or passages of the source.

Experiments:
Assay in all cases: selectivity profiling in a panel of 340 wild-type kinases (Reaction Biology Europe)
Assay type in all cases: binding
340 wild-type kinases [1] = target: T1, 340 wild-type kinases (Homo sapiens, UniProt O60566)
T1 construct: purchased Reaction Biology Europe

340 wild-type kinases [2] = target: T2, 340 wild-type kinases (Homo sapiens, UniProt Q96RR4)
T2 construct: purchased Reaction Biology Europe

340 wild-type kinases [3] = target: T3, 340 wild-type kinases (Homo sapiens, UniProt P57078)
T3 construct: purchased Reaction Biology Europe
T3 sequence (P57078 1-832): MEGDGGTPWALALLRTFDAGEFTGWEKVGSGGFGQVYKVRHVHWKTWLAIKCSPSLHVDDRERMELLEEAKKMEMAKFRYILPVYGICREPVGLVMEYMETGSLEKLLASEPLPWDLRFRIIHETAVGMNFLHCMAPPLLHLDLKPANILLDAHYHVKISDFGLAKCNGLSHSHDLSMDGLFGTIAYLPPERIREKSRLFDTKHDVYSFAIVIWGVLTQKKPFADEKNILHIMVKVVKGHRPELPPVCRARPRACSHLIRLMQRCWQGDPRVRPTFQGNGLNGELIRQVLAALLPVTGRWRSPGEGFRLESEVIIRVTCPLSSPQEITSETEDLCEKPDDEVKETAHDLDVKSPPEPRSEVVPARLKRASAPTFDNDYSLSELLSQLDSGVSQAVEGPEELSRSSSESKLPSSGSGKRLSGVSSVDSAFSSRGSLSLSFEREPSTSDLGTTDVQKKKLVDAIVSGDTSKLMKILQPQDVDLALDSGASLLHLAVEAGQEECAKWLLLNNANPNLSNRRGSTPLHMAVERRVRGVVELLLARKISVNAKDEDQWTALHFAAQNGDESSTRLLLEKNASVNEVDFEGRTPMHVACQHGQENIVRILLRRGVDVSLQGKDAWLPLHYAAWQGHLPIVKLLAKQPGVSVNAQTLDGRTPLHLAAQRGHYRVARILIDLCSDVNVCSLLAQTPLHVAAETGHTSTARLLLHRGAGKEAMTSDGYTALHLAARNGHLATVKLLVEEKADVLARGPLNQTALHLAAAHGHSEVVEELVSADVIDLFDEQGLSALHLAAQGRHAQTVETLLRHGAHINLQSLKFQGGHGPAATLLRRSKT

340 wild-type kinases [4] = target: T4, 340 wild-type kinases (Homo sapiens, UniProt P23458)
T4 construct: purchased Reaction Biology Europe

340 wild-type kinases [5] = target: T5, 340 wild-type kinases (Homo sapiens, UniProt Q12851)
T5 construct: purchased Reaction Biology Europe
T5 sequence (Q12851 1-820): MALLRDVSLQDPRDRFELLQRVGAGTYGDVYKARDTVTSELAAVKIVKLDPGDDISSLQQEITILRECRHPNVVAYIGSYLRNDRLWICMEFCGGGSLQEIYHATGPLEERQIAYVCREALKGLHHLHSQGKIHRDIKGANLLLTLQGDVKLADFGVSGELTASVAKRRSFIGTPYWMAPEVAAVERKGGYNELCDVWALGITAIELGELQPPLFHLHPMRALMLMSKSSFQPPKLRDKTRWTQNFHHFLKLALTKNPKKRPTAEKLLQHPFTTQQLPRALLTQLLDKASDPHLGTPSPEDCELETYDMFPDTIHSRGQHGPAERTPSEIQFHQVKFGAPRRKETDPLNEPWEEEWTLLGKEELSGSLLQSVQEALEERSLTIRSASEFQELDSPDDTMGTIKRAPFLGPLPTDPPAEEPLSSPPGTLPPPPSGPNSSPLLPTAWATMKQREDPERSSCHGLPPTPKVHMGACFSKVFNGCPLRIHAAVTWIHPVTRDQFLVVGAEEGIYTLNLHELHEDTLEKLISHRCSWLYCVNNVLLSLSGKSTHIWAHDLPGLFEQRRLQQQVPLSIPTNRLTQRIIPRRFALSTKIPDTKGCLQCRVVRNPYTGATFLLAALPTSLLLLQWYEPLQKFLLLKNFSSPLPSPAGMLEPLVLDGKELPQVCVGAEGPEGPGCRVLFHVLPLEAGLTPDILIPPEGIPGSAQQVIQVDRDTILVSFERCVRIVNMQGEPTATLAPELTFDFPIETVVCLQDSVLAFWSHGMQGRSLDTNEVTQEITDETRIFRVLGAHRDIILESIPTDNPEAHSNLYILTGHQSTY

340 wild-type kinases [6] = target: T6, 340 wild-type kinases (Homo sapiens, UniProt Q8TDX7)
T6 construct: purchased Reaction Biology Europe
T6 sequence (Q8TDX7 whole entry): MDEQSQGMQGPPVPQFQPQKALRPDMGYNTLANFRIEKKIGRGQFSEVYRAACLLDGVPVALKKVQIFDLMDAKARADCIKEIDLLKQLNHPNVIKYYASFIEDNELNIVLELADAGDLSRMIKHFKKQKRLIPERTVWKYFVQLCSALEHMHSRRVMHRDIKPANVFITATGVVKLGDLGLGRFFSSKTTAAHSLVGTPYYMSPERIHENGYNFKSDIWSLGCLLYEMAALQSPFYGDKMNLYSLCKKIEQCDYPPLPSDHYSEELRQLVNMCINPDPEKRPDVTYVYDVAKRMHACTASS

T2 sequence (Q96RR4 whole entry): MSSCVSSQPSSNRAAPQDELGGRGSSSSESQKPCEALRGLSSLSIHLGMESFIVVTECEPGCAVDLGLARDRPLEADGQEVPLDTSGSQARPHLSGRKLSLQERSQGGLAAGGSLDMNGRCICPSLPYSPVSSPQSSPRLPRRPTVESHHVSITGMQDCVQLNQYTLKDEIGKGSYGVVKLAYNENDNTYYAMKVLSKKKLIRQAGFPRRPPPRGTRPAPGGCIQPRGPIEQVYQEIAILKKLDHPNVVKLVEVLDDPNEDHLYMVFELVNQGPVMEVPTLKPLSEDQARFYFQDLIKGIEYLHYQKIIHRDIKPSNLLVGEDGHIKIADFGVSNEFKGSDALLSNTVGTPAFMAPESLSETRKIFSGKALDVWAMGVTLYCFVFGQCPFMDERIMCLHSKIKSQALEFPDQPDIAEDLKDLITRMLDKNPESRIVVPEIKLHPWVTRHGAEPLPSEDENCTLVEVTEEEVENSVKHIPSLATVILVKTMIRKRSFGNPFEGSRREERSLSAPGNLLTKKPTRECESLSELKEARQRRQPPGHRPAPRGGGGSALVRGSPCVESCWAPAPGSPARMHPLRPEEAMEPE
T4 sequence (P23458 whole entry): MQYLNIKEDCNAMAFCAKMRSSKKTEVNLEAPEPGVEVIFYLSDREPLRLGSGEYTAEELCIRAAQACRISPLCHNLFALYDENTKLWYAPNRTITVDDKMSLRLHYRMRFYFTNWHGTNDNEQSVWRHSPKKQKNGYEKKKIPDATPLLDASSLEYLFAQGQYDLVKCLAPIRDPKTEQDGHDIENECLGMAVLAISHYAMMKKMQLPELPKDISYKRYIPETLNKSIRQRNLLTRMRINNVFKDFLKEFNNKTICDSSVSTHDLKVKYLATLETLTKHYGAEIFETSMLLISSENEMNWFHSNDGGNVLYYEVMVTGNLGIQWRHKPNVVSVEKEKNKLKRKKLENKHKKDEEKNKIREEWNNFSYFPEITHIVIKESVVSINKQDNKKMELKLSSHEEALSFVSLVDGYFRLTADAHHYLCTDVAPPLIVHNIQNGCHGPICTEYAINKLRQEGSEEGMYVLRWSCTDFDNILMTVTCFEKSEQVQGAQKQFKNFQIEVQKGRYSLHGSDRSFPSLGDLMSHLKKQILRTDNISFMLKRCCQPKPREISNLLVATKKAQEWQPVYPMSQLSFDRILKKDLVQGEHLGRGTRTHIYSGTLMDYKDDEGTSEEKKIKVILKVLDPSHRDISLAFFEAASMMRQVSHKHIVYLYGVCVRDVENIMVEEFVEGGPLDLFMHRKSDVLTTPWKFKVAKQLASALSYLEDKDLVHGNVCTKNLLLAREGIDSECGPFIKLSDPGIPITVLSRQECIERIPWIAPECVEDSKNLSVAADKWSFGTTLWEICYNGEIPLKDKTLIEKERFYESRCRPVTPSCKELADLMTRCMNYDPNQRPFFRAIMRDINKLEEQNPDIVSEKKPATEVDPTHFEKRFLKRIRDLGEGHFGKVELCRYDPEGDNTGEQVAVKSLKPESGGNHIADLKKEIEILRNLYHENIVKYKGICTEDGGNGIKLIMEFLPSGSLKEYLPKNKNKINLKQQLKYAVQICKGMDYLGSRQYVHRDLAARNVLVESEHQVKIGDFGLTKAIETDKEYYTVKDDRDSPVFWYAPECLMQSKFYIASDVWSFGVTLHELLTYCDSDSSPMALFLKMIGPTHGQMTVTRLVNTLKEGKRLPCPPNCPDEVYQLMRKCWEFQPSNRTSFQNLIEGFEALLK
T1 sequence (O60566 whole entry): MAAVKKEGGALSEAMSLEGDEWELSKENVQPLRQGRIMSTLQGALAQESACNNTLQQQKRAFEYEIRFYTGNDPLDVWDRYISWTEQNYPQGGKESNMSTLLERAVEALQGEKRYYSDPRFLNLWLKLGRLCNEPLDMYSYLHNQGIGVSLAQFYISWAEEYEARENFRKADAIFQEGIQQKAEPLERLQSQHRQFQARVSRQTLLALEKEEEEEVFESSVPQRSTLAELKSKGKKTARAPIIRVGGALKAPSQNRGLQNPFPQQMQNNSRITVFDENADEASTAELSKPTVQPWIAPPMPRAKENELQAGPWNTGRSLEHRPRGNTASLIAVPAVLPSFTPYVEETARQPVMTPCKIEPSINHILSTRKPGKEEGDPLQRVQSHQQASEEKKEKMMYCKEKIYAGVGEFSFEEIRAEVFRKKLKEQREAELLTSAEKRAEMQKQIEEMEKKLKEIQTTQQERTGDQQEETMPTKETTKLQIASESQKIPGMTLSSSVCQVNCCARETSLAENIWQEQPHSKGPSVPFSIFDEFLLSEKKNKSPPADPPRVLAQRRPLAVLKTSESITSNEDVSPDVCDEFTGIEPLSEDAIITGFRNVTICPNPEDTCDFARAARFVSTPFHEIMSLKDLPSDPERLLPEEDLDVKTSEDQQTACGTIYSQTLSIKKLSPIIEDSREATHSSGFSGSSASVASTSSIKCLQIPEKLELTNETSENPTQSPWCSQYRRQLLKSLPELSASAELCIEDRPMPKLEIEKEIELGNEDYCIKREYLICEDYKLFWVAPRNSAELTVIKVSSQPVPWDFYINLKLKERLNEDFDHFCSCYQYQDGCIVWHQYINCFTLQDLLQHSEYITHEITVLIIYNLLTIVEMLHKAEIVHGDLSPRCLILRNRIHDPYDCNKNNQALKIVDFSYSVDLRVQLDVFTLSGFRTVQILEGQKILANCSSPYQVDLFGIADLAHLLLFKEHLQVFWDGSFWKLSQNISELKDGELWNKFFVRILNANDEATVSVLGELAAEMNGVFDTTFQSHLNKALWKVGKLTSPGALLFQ

CNC(=O)c1ccc2c(c1)C(=O)c1ccc(Nc3ccc(F)c(NC(=O)C4CC4)c3)cc1CC2 [Compound 2015]
remaining activity at 0.2 µM (340 wild-type kinases [1]; 0.2 µM 2015, read-out: BUB1B residual activity): 94.1% | remaining activity at 1 µM (340 wild-type kinases [1]; 1 µM 2015, read-out: BUB1B residual activity): 95.8% | remaining activity at 0.2 µM (340 wild-type kinases [1]; BUB1B, 0.2 µM, read-out: residual activity): 94.1% | remaining activity at 1 µM (340 wild-type kinases [1]; BUB1B, 1 µM, read-out: residual activity): 95.8% | remaining activity at 0.2 µM (340 wild-type kinases [2]; 0.2 µM 2015, read-out: CAMKK2 residual activity): 96% | remaining activity at 1 µM (340 wild-type kinases [2]; 1 µM 2015, read-out: CAMKK2 residual activity): 96.6% | remaining activity at 0.2 µM (340 wild-type kinases [2]; CAMKK2, 0.2 µM, read-out: residual activity): 96% | remaining activity at 1 µM (340 wild-type kinases [2]; CAMKK2, 1 µM, read-out: residual activity): 96.6% | remaining activity at 0.2 µM (340 wild-type kinases [3]; 0.2 µM 2015, read-out: RIPK4 residual activity): 104% | remaining activity at 1 µM (340 wild-type kinases [3]; 1 µM 2015, read-out: RIPK4 residual activity): 98.2% | remaining activity at 0.2 µM (340 wild-type kinases [3]; RIPK4, 0.2 µM, read-out: residual activity): 104% | remaining activity at 1 µM (340 wild-type kinases [3]; RIPK4, 1 µM, read-out: residual activity): 98.2% | remaining activity at 0.2 µM (340 wild-type kinases [4]; 0.2 µM 2015, read-out: JAK1 residual activity): 86.7% | remaining activity at 1 µM (340 wild-type kinases [4]; 1 µM 2015, read-out: JAK1 residual activity): 99.8% | remaining activity at 0.2 µM (340 wild-type kinases [4]; JAK1, 0.2 µM, read-out: residual activity): 86.7% | remaining activity at 1 µM (340 wild-type kinases [4]; JAK1, 1 µM, read-out: residual activity): 99.8% | remaining activity at 0.2 µM (340 wild-type kinases [5]; 0.2 µM 2015, read-out: MAP4K2 residual activity): 109% | remaining activity at 1 µM (340 wild-type kinases [5]; 1 µM 2015, read-out: MAP4K2 residual activity): 104% | remaining activity at 0.2 µM (340 wild-type kinases [5]; MAP4K2, 0.2 µM, read-out: residual activity): 109% | remaining activity at 1 µM (340 wild-type kinases [5]; MAP4K2, 1 µM, read-out: residual activity): 104% | remaining activity at 0.2 µM (340 wild-type kinases [6]; 0.2 µM 2015, read-out: NEK7 residual activity): 119% | remaining activity at 1 µM (340 wild-type kinases [6]; 1 µM 2015, read-out: NEK7 residual activity): 110% | remaining activity at 0.2 µM (340 wild-type kinases [6]; NEK7, 0.2 µM, read-out: residual activity): 119%
